Measured values published in ChEMBL document CHEMBL1124385, “A new series of tricyclic (aryloximino)propanolamines displaying very high selective beta 2-blocking properties” (J Med Chem, 1989).

Columns and labels:
[1] = molecular target: Beta-2 adrenergic receptor (Cavia porcellus, UniProt Q8K4Z4); test: Beta-2 adrenergic receptor blocking was assessed from 50% inhibition of the isoproterenol submaximal response on isolated Guinea pig trachea(IT)
[2] = molecular target: Beta-1 adrenergic receptor (Cavia porcellus, UniProt B0FL73); test: Beta-1 adrenergic receptor blocking was assessed from 50% inhibition of the isoproterenol submaximal response on isolated Guinea pig atria(IA)
[3] = Selectivity, ratio of IC50 on guinea pig atria and guinea pig trachea

Chain of Beta-1 adrenergic receptor (B0FL73 whole entry): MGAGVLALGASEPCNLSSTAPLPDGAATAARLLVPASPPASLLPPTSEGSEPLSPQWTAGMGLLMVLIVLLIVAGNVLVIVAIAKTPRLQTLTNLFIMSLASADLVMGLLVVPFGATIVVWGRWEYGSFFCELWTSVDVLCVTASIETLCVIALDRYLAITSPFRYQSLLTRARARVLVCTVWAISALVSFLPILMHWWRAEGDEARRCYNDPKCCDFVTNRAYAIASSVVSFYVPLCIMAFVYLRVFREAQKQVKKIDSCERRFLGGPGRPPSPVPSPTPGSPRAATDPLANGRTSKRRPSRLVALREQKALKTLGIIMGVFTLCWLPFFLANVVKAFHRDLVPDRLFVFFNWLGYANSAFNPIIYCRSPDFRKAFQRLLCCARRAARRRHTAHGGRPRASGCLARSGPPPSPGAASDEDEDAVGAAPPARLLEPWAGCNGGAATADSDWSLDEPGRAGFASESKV
Chain of Beta-2 adrenergic receptor (Q8K4Z4 whole entry): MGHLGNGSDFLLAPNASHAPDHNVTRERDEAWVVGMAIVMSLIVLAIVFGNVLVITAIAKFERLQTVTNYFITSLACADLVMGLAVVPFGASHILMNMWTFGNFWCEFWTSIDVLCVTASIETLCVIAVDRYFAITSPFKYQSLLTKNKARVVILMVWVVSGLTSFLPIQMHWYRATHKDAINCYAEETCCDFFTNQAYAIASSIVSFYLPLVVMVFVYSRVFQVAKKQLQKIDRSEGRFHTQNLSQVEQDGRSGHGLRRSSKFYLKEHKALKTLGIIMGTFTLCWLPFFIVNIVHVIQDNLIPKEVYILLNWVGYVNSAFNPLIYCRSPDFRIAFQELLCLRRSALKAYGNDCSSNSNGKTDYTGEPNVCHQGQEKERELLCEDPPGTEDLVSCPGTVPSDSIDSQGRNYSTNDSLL

| IC50 [1] | IC50 [2] | Ratio [3] | SMILES |
| --- | --- | --- | --- |
| > 10 µM | > 10 µM |  | CC(C)NCC(O)CO/N=C1/c2ccccc2C2CCCCCC12OCCO (stereo unspecified) |
| > 10 µM | > 10 µM |  | COc1cc(CCNCC(O)CO/N=C2/c3ccccc3C3CCCCCCCCCC23OC)cc(OC)c1 (stereo unspecified) |
| > 10 µM | > 10 µM |  | CC(C)NCC(O)CO/N=C1/c2ccccc2C2CCCCC12OCCO (stereo unspecified) |
| > 10 µM | > 10 µM |  | CC(C)NCC(O)CO/N=C1/c2ccccc2C2CCCCC12O (stereo unspecified) |
| > 10 µM | > 10 µM |  | COc1cc(CCNCC(O)CO/N=C2/c3cc(F)ccc3C3CCCCC23OC)cc(OC)c1 (stereo unspecified) |
| > 10 µM | > 10 µM |  | COC12CCCCCCCCCC1c1ccccc1/C2=N/OCC(O)CNC(C)C (stereo unspecified) |
| 0.3 µM | 1.2 µM |  | COC12CCCCC1c1ccccc1/C2=N/OCC(O)CNC(C)C (stereo unspecified) |
| 0.79 µM | 19 µM |  | COC12CCCCC1c1ccc(F)cc1/C2=N/OCC(O)CNC(C)C (stereo unspecified) |
| 0.44 µM | 0.34 µM |  | CC(C)(C)NCC(O)CO/N=C1/c2ccccc2C2CCCCCC12O (stereo unspecified) |
| > 10 µM | 13 µM |  | COc1cc(CCNCC(O)CO/N=C2/c3ccccc3C3CCCCCC23OC)cc(OC)c1 (stereo unspecified) |
| 3.1 µM | 0.85 µM | 0.28 | CC(C)(C)NCC(O)CO/N=C1/c2ccccc2C2CCCCC12OCCO (stereo unspecified) |
| > 10 µM | 0.89 µM |  | CC(C)NCC(O)CO/N=C1/c2ccccc2C2CCCCCC12O (stereo unspecified) |
| 7.9 µM | > 1 µM |  | CC(C)(C)NCC(O)CO/N=C1/c2ccccc2C2CCCCCC12OCCO (stereo unspecified) |
| 31 µM | 2.8 µM | 0.09 | CC(C)(C)NCC(O)CO/N=C1/c2ccccc2C2CCCCC12O (stereo unspecified) |
| > 10 µM | > 10 µM |  | COc1cc(CCNCC(O)CO/N=C2/c3ccccc3C3CCCCC23OC)cc(OC)c1 (stereo unspecified) |

| SMILES | IC50 [1] | IC50 [2] | Ratio [3] |
| --- | --- | --- | --- |
| COC12CCCCC1c1ccc(F)cc1/C2=N/OCC(O)CNC(C)(C)C (stereo unspecified) | 0.45 µM | 0.83 µM |  |
| COC12CCCCCC1c1ccccc1/C2=N/OCC(O)CNC(C)C (stereo unspecified) | 0.035 µM | 3 µM |  |
| COC12CCCCC1c1ccccc1/C2=N/OCC(O)CNC(C)(C)C (stereo unspecified) | 0.035 µM | 12 µM | 33 |
| COC12CCCCCC1c1ccccc1/C2=N/OCC(O)CNC(C)(C)C (stereo unspecified) | 0.44 µM | 0.16 µM |  |
